Values quoted from earlier work, collected in patent publication EP4752146A1, “NOVEL CA[…] CARRIER-DRUG CONJUGATE COMPRISING SAME” (priority 2023, dated 2025).

System: cancer cells
Details: background

SMILES | activity in cancer cells relative to SN-38 (higher than SN-38) | IC50 (various cell lines)
CC[C@@]1(O)C(=O)OCc2c1cc1n(c2=O)Cc2c-1nc1cc(F)c(C)c3c1c2[C@@H](NC(=O)CO)CC3 [DXd] | approximately 10 fold | 
CCc1c2c(nc3ccc(O)cc13)-c1cc3c(c(=O)n1C2)COC(=O)[C@]3(O)CC [SN-38] |  | nanomolar range
